Values of other authors in PMC4585962, “A peptide factor secreted by Staphylococcus pseudintermedius exhibits properties of both bacteriocins and virulence factors” (Scientific Reports, 2015).

Legend:
proteases = settings: cited from earlier work
Description: (§1) BacSp222 remains active upon even prolonged incubation at elevated temperature and is exceptionally resistant to proteases in vitro. The former feature is quite common for bacteriocins, which, in combination with the virtual lack of cytotoxicity, contributes to common and successful application of bacteriocins in the food industry as preservatives, either in the form of additives or as coating agents for packaging materials. […] Resistan ...

mammalian cells = settings: cited from earlier work
Source text: In addition to the evident bactericidal activity of BacSp222, the most intriguing findings are its cytotoxic and modulatory effects on mammalian cells. Generally, peptide bacteriocins are considered to be noncytotoxic. However, the first known bacterial toxin active against eukaryotic and prokaryotic cells was a cytolysin produced by Enterococcus faecalis.

[1] = tested on: Galleria mellonella larvae; settings: degradation or inactivation by host agents; cited from earlier work
Description: as §1

Question: With aureocin A53 as the substance, how does the resistance to proteases (proteases) read?
Answer: Resistance to proteases

Question: With bovicin HC5 as the substance, how does the “concentrations with adverse effects on mammalian cells” value (mammalian cells) read?
Answer: tens to hundreds

Question: Which “time to loss of bacteriocin activity after administration” value [1] does the source give for epidermicin NI01 here?
Answer: lost within less than an hour

Question: Which “concentrations with adverse effects on mammalian cells” value (mammalian cells) does the source give for “nisin: low molecular weight bacteriocin produced by lactic acid bacteria (ITSISLCTPGCKTGALMGCNMKTATCHCSIHVSK; not fully specified; Lantibiotic nisin-A; UniProt P13068 24-57, looked up)” here?
Answer: tens to hundreds
